Values of other authors in patent US20250031694A1, “AGRICULTURAL CHEMICAL COMPOSITION AND METHOD FOR PRODUCING SAME” (MITSUI CHEMICALS CROP & LIFE SOLUTIONS, INC., priority 2021, published 2025).
In brackets after ≈: the same amount, converted by molar mass.

Settings: FAMIC agrochemical abstract

SMILES	water solubility (25° C.)	water solubility (20° C.)
CCCOCCN(C(=O)CCl)c1c(CC)cccc1CC [pretilachlor]	74 µg/mL (≈ 237 µM)	–
C=CCOC1=NS(=O)(=O)c2ccccc21 [probenazole]	–	36.6 µg/mL (≈ 164 µM)
CC(=O)Oc1c(C)c(C)nc2c(F)cc(C(C)(C)C)cc12 [tebufloquin]	–	20.2 µg/mL (≈ 69.8 µM)
CN1COCN(Cc2cnc(Cl)s2)/C1=N\[N+](=O)[O-] [thiamethoxam]	4100 µg/mL (≈ 14100 µM)	–
